These results are taken from patent publication US8802688B2, “Substituted acetyl-coa carboxylase inhibitors” (Pfizer Inc., priority 2011, dated 2014).

The target of assay [1] is T1, recombinant human ACC2 (rhACC2) (Homo sapiens, UniProt O00763, V2141I).
T1 construct: a full length Cytomax clone of ACC2 was purchased from Cambridge Bioscience Limited; made in house; host or cells: CHO cells, tetracycline-induced (PcDNA5 FRT TO-TOPO)
In words: recombinant hACC2 Transcreener ADP detection FP assay. As to conditions: 50 μM ATP, 30 μM acetyl-CoA. It is filed as biochemical. The method, then: (§1) For example direct inhibition of ACC activity, for the compound of Formula (I) was determined using preparations of recombinant human ACC1 (rhACC1) and recombinant human ACC2 (rhACC2). Representative sequences of the recombinant human ACC1 and ACC2 that can be used in the assay are provided herein as SEQ ID NO. 1 and SEQ. ID NO. 2, respectively.
[3] Preparation of rhACC2. Human ACC2 inhibition was measured using purified recombinant human ACC2 (hrACC2). Briefly, a full length Cytomax clone of ACC2 was purchased from Cambridge Bioscience Limited and was sequenced and subcloned into PcDNA5 FRT TO-TOPO (Invitrogen, Carlsbad, Calif.). The ACC2 was expressed in CHO cells by tetracycline induction and harvested in 5 liters of DMEM/F12 with glutamine, biotin, hygromycin and blasticidin with 1 μg/mL tetracycline (Invitrogen, Carlsbad, Calif.). The conditioned medium containing ACC2 was then applied to a Softlink Soft Release Avidin column (Promega, Madison, Wis.) and eluted with 5 mM biotin. 4 mgs of ACC2 were eluted at a concentration of 0.05 mg/mL (determined by A280) with an estimated purity of 95% ([…]). The purified ACC2 was dialyzed in 50 mM Tris, 200 mM NaCl, 4 mM DTT, 2 mM EDTA, and 5% glycerol. The pooled protein was frozen and stored at −80° C., with no loss of activity upon thawing. For measurement of ACC2 activity and assessment of ACC2 inhibition, test compounds were dissolved in DMSO and added to the rhACC2 enzyme as a 5× stock with a final DMSO concentration of 1%.
[4] Measurement of human ACC2 inhibition. hACC2 was assayed in a Costar #3676 (Costar, Cambridge, Mass.) 384-well plate using the Transcreener ADP detection FP assay kit (Bellbrook Labs, Madison, Wis.) using the manufacturer's recommended conditions for a 50 uM ATP reaction. The final conditions for the assay were 50 mM HEPES, pH 7.2, 5 mM MgCl2, 5 mM tripotassium citrate, 2 mM DTT, 0.1 mg/mL BSA, 30 μM acetyl-CoA, 50 μM ATP, and 8 mM KHCO3. Typically, a 10 μl reaction was run for 50 min at 25° C., and 10 μl of Transcreener stop and detect buffer was added and the combination incubated at room temp for an additional 1 hour. The data was acquired on an Envision Fluorescence reader (Perkinelmer) using a 620 excitation Cy5 FP general dual mirror, 620 excitation Cy5 FP filter, 688 emission (S) and a 688 (P) emission filter.
(§2) The results using the recombinant hACC1 and recombinant hACC2 Transcreener assays described above are summarized in the table below for the Compounds of Formula (I) exemplified in the Examples above.

Assay [2] has as its target T2, recombinant human ACC1 (rhACC1) (Homo sapiens, UniProt Q13085, DEL44-44).
T2 construct: recombinant baculovirus containing full length human ACC1 cDNA; made in house; host or cells: SF9 insect cells, recombinant baculovirus
In words: recombinant hACC1 Transcreener ADP detection FP assay. The format is biochemical. The following applies: 50 μM ATP, 30 μM acetyl-CoA. As to the method: as §1
[1] Preparation of rhACC1. Two liters of SF9 cells, infected with recombinant baculovirus containing full length human ACC1 cDNA, were suspended in ice-cold lysis buffer (25 mM Tris, pH 7.5; 150 mM NaCl; 10% glycerol; 5 mM imidazole (EMD Bioscience; Gibbstown, N.J.); 2 mM TCEP (BioVectra; Charlottetown, Canada); Benzonase nuclease (10000 U/100 g cell paste; Novagen; Madison, Wis.); EDTA-free protease inhibitor cocktail (1 tab/50 mL; Roche Diagnostics; Mannheim, Germany). Cells were lysed by 3 cycles of freeze-thaw and centrifuged at 40,000×g for 40 minutes (4° C.). Supernatant was directly loaded onto a HisTrap FF crude column (GE Healthcare; Piscataway, N.J.) and eluted with an imidazole gradient up to 0.5 M over 20 column volumes (CV). ACC1-containing fractions were pooled and diluted 1:5 with 25 mM Tris, pH 7.5, 2 mM TCEP, 10% glycerol and direct loaded onto a CaptoQ (GE Healthcare) column and eluted with an NaCl gradient up to 1 M over 20 CV's. Phosphate groups were removed from purified ACC1 by incubation with lambda phosphatase (100 U/10 μM target protein; New England Biolabs; Beverly, Mass.) for 14 hours at 4° C.; okadaic acid was added (1 μM final concentration; Roche Diagnostics) to inhibit the phosphatase. Purified ACC1 was exchanged into 25 mM Tris, pH 7.5, 2 mM TCEP, 10% glycerol, 0.5 M NaCl by 6 hour dialysis at 4° C. Aliquots were prepared and frozen at −80° C.
[2] Measurement of rhACC1 inhibition. hACC1 was assayed in a Costar #3676 (Costar, Cambridge, Mass.) 384-well plate using the Transcreener ADP detection FP assay kit (Bellbrook Labs, Madison, Wis.) using the manufacturer's recommended conditions for a 50 μM ATP reaction. The final conditions for the assay were 50 mM HEPES, pH 7.2, 10 mM MgCl2, 7.5 mM tripotassium citrate, 2 mM DTT, 0.1 mg/mL BSA, 30 μM acetyl-CoA, 50 μM ATP, and 10 mM KHCO3 Typically, a 10 μl reaction was run for 120 min at 25° C., and 10 μl of Transcreener stop and detect buffer was added and the combination incubated at room temp for an additional 1 hour. The data was acquired on a Envision Fluorescence reader (Perkinelmer) using a 620 excitation Cy5 FP general dual mirror, 620 excitation Cy5 FP filter, 688 emission (S) and a 688 (P) emission filter.
as §2

T1 sequence (O00763 whole entry V2141I): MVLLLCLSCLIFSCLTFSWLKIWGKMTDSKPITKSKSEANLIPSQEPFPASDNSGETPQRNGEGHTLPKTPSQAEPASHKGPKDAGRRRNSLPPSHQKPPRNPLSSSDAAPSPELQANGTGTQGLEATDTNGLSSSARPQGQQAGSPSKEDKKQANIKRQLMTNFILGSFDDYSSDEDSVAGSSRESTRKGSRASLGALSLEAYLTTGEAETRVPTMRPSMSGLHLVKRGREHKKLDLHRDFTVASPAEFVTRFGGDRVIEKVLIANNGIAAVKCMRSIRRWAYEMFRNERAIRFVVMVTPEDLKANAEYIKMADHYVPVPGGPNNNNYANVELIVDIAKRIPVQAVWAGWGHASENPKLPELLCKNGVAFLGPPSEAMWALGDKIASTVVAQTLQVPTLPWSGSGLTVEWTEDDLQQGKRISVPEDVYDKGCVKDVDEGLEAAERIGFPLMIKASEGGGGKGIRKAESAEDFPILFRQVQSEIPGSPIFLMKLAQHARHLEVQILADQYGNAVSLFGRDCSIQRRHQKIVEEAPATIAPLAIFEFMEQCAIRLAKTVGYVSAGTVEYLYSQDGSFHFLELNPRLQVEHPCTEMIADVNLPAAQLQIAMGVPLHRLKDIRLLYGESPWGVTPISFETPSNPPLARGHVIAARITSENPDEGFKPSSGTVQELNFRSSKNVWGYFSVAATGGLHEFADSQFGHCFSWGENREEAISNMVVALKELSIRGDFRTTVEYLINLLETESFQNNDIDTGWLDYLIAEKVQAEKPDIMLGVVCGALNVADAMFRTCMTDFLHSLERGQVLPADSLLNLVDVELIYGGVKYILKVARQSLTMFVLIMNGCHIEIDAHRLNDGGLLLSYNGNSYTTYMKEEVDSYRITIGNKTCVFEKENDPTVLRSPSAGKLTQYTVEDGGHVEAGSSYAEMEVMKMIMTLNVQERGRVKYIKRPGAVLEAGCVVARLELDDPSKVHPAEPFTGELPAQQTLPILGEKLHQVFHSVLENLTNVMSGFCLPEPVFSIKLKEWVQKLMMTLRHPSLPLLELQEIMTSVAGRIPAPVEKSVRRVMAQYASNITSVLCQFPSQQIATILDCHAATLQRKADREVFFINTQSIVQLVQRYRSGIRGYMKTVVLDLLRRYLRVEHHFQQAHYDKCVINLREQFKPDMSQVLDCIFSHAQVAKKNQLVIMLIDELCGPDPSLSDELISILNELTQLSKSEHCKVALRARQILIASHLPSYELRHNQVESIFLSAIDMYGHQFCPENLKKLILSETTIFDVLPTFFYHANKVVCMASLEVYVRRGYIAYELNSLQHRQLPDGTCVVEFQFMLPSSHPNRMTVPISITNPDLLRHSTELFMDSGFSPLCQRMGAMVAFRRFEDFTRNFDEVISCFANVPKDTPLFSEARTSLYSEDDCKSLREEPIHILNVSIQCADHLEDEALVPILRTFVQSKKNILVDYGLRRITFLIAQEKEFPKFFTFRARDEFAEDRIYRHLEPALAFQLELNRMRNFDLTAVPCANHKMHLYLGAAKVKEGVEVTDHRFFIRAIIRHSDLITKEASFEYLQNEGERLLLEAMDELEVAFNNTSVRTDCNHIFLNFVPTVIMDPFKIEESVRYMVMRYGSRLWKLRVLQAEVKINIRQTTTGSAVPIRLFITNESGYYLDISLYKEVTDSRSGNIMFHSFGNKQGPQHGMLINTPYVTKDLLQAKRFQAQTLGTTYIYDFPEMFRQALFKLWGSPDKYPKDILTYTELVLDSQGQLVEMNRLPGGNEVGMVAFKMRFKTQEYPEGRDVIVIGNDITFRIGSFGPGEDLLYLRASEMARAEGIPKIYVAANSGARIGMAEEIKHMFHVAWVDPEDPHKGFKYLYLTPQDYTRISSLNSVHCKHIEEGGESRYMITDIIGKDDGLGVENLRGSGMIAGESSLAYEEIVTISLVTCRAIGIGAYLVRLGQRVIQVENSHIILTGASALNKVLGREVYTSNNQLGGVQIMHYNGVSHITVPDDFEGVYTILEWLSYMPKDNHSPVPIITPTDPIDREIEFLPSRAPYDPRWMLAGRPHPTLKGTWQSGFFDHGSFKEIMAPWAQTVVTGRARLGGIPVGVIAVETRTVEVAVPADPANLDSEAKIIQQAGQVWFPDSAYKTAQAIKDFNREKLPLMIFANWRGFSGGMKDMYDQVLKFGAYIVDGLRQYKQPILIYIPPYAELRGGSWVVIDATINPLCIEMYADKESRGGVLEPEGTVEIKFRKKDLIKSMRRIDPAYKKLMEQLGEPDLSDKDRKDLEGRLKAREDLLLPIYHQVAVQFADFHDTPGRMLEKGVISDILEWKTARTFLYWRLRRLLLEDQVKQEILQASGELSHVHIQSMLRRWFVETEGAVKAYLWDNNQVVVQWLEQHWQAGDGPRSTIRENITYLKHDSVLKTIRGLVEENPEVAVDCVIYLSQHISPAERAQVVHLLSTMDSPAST

Turning to `CC(C)(C)n1cc2c(n1)C(=O)CC1(CCN(C(=O)c3ccc4ccc(N)nc4c3)CC1)C2` [Example 47, 1′-[(2-aminoquinolin-7-yl)carbonyl]-2-tert-butyl-2,4-dihydrospiro[indazole-5,4′-piperidin]-7(6H)-one], the IC50 came to 1.3 nM in assay [1] and 5.3 nM in assay [2].
On to `CC(C)n1ncc2c1C(=O)CC1(CCN(C(=O)c3cnc4c(C(N)=O)c[nH]c4c3)CC1)C2` [Example 3, 6-[(1-isopropyl-7-oxo-1,4,6,7-tetrahydro-1′H-spiro[indazole-5,4′-piperidin]-1′-yl)carbonyl]-1H-pyrrolo[3,2-b]pyridine-3-carboxamide], for which the results for the IC50 in assay [1] and in assay [2] were 13 nM and 32 nM, respectively.
The matching figures for `CNc1nc2cc(C(=O)N3CCC4(CC3)CC(=O)c3c(cnn3C(C)C)C4)ccc2[nH]1` [Example 20, 1-isopropyl-1′-{[2-(methylamino)-1H-benzimidazol-5-yl]carbonyl}-1,4-dihydrospiro[indazole-5,4′-piperidin]-7(6H)-one]: 3 nM and 13 nM.
The matching figures for `CC(C)(C)n1cc2c(n1)C(=O)CC1(CCN(C(=O)c3ccc4[nH]c(N)nc4c3)CC1)C2` [Example 35]: 1.4 nM and 12 nM.
In the case of `CC(C)(C)n1cc2c(n1)C(=O)CC1(CCN(C(=O)c3cnc4[nH]cc(C(N)=O)c4c3)CC1)C2` [Example 30], the IC50 is 2.6 nM in assay [1] and 9.4 nM in assay [2].
With `CC(C)(C)n1cc2c(n1)C(=O)CC1(CCN(C(=O)c3ccc4[nH]c(C(N)=O)cc4c3)CC1)C2` [Example 32], the IC50 in assay [1] was 1.5 nM; in assay [2] it was 8.1 nM.
As to `NC(=O)c1n[nH]c2ccc(C(=O)N3CCC4(CC3)CC(=O)c3c(cnn3C35CC(C3)C5)C4)cc12` [Example 49, 5-[(1-bicyclo[1.1.1]pent-1-yl-7-oxo-1,4,6,7-tetrahydro-1′H-spiro[indazole-5,4′-piperidin]-1′-yl)carbonyl]-1H-indazole-3-carboxamide], the values for the IC50 in assay [1] and in assay [2] were 8.4 nM and 12 nM, respectively.
For the compound `CC(C)n1ncc2c1C(=O)CC1(CCN(C(=O)c3cnc4c(Cl)c[nH]c4c3)CC1)C2` [Example 16], the IC50 is 3.1 nM in assay [1] and 6.7 nM in assay [2].
For the compound `CC(C)n1ncc2c1C(=O)CC1(CCN(C(=O)c3cnc4c(C#N)c[nH]c4c3)CC1)C2` [Example 23, 6-[(1-isopropyl-7-oxo-1,4,6,7-tetrahydro-1′H-spiro[indazole-5,4′-piperidin]-1′-yl)carbonyl]-1H-pyrrolo[3,2-b]pyridine-3-carbonitrile], the IC50 stood at 15 nM in assay [1] and 32 nM in assay [2].
For `CC(C)(C)n1cc2c(n1)C(=O)CC1(CCN(C(=O)c3cnc4ccc(OCC(N)=O)cc4c3)CC1)C2` [Example 46, 2-({3-[(2-tert-butyl-7-oxo-2,4,6,7-tetrahydro-1′H-spiro[indazole-5,4′-piperidin]-1′-yl)carbonyl]quinolin-6-yl}oxy)acetamide], the figures for the IC50 in assay [1] and in assay [2] were 3.8 nM and 14 nM, respectively.
Regarding `CC(C)n1ncc2c1C(=O)CC1(CCN(C(=O)c3ccc4c(C(N)=O)c[nH]c4c3)CC1)C2` [Example 1, 6-[(1-isopropyl-7-oxo-1,4,6,7-tetrahydro-1′H-spiro[indazole-5,4′-piperidin]-1′-yl)carbonyl]-1H-indole-3-carboxamide], the results for the IC50 in assay [1] and in assay [2] were 1.4 nM and 6 nM, respectively.
As to `CC(C)n1ncc2c1C(=O)CC1(CCN(C(=O)c3ccc4[nH]nc(C(N)=O)c4c3)CC1)C2` [Example 2, 5-[(1-isopropyl-7-oxo-1,4,6,7-tetrahydro-1′H-spiro[indazole-5,4′-piperidin]-1′-yl)carbonyl]-1H-indazole-3-carboxamide], the IC50 in assay [1] was found to be 3.1 nM; in assay [2], 7.9 nM.
In the case of `CC(C)n1ncc2c1C(=O)CC1(CCN(C(=O)c3ccc4nc(N)ccc4c3)CC1)C2` [Example 15], the IC50 in assay [1] came to 2.6 nM; in assay [2], 14 nM.
Consider `CC(C)n1ncc2c1C(=O)CC1(CCN(C(=O)c3cnc4[nH]nc(C(N)=O)c4c3)CC1)C2` [Example 18, 5-[(1-isopropyl-7-oxo-1,4,6,7-tetrahydro-1′H-spiro[indazole-5,4′-piperidin]-1′-yl)carbonyl]-1H-pyrazolo[3,4-b]pyridine-3-carboxamide], for which the IC50 was 22 nM in assay [1] and 33 nM in assay [2].
Consider `CNc1nc2cc(C(=O)N3CCC4(CC3)CC(=O)c3nn(C(C)(C)C)cc3C4)ccc2[nH]1` [Example 39], for which the IC50 amounted to 1.5 nM in assay [1] and 9.8 nM in assay [2].
Consider `CC(C)(C)n1cc2c(n1)C(=O)CC1(CCN(C(=O)c3cnc4c(Cl)c[nH]c4c3)CC1)C2` [Example 42], for which the IC50 in assay [1] was 1.8 nM; in assay [2] it was 6.6 nM.
Regarding `CNC(=O)c1n[nH]c2ccc(C(=O)N3CCC4(CC3)CC(=O)c3c(cnn3C(C)C)C4)cc12` [Example 9], the IC50 in assay [1] is 2.9 nM; in assay [2], 8.4 nM.
`CCNC(=O)c1n[nH]c2ccc(C(=O)N3CCC4(CC3)CC(=O)c3nn(C(C)(C)C)cc3C4)cc12` [Example 36]: the IC50 in assay [1] was 1.7 nM; in assay [2] it was 4 nM.

As usually defined, the IC50 is the concentration that gives 50% inhibition.
